Series [1] is described as follows: Drug localization in lungs of CD-1 mouse at 25 nmol, iv measured after 4 hrs by fluorescence imaging analysis. Type of series: ADME, organism-based, Lung. To be noted: in vivo.
Series [2] is described as follows: Drug localization in liver of CD-1 mouse at 25 nmol, iv measured after 4 hrs by fluorescence imaging analysis. Type of series: ADME, organism-based. To be noted: in vivo.
A short description of series [3]: Clearance in CD-1 mouse at 25 nmol, iv measured upto 480 mins by UV-Vis spectrophotometer method. It is filed as ADME, organism-based. To be noted: in vivo.
Series [4] can be described thus: Biodistribution in bone marrow of mouse implanted with mouse NIT-1 cells at 35 nmol, iv incubated for 4 to 8 hrs by fluorescence imaging analysis. It is filed as ADME, organism-based. The following applies: in vivo, time 4-8 hrs.
Series [5] in a line: Phototherapeutic index, ratio of IC50 for dark cytotoxicity against human U-87 MG cells to IC50 for light cytotoxicity against human U-87 MG cells preincubated for 6 to 24 hrs followed by light irradiation for 20 min and measured after 24 hrs dark incubation by Alamar blue assay. It is filed as cell-based, U-87MG ATCC. To be noted: time 6-24 hrs, read-out: Ratio IC50.
Another series relates to U-87 MG. As to the kind of experiment: Dark toxicity against human U-87 MG cells incubated for 48 hrs by Alamar blue assay. It is filed as cell-based, U-87MG ATCC. On the technique in general: Alamar Blue is a resazurin reagent that responds to reducing activity.
Series [6] in a line: Drug localization in kidney of CD-1 mouse at 25 nmol, iv measured after 4 hrs by fluorescence imaging analysis. It is filed as ADME, organism-based. The following applies: in vivo.
A short description of series [7]: Terminal half life in CD-1 mouse at 25 nmol, iv measured upto 480 mins by UV-Vis spectrophotometer method. It is filed as ADME, organism-based. The following applies: in vivo, read-out: beta t1/2.
In the next series the test system is Mus musculus. As to the kind of experiment: Antitumor activity against mouse implanted with mouse NIT-1 cells assessed as tumor to background ratio at 35 nmol, iv incubated for 4 hrs by fluorescence imaging analysis. Type of series: functional.
Series [8] is described as follows: Biodistribution in lymph node of mouse implanted with mouse NIT-1 cells at 35 nmol, iv incubated for 4 to 8 hrs by fluorescence imaging analysis. Type of series: ADME, organism-based. To be noted: in vivo, time 4-8 hrs.
The nature of series [9]: Drug localization in duodenum of CD-1 mouse at 25 nmol, iv measured after 4 hrs by fluorescence imaging analysis. Type of series: ADME, organism-based. To be noted: in vivo.
A short description of series [10]: Biodistribution in peripheral tissue of mouse implanted with mouse NIT-1 cells at 35 nmol, iv incubated for 4 to 8 hrs by fluorescence imaging analysis. It is filed as ADME, organism-based. The following applies: in vivo, time 4-8 hrs.
Series [11] is described as follows: Half life in CD-1 mouse blood at 25 nmol, iv measured upto 480 mins by UV-Vis spectrophotometer method. Type of series: ADME, organism-based.

As a reminder, the clearance is a measure of how efficiently the substance is removed, as volume per time. Low readings indicate inefficient removal, high ones efficient removal. For orientation: IC50 means the concentration that gives 50% inhibition. A low value points to inhibition by little substance.

Each structure is given as a SMILES string.

Consider `CC1(C)C(/C=C/C2=C(Cl)C(=C/C=C3/N(CCCCCC(=O)O)c4ccc(I)cc4C3(C)C)/C[N+](C)(C)C2)=[N+](CCCCCC(=O)O)c2ccc(I)cc21`, for which the Drug uptake entry is listed as “Not Active” in [1]; “Active” in series [2]; “Active” in [4]; “Active” in series [6]; “Active” in series [8]. Moreover, the clearance in series [3] came out at 5 mL/min/kg. Besides, the selectivity ratio at 24 h in [5] was found to be 72.8. Further, half-maximal inhibition in the series with U-87 MG (IC50) was put at 62.4 µM. In addition, the half-life in series [7] came to 0.917 h. In addition, the Ratio in the series with Mus musculus is recorded as 8.98.

For the compound `CC1(C)C(/C=C/C2=C(Cl)C(=C/C=C3/N(CCCCCC(=O)O)c4ccccc4C3(C)C)/C[N+](C)(C)C2)=[N+](CCCCCC(=O)O)c2ccccc21`, the IC50 with U-87 MG is above 100 µM.

On to `CC1(C)C(/C=C/C2=C(Cl)C(=C/C=C3/N(CCCCCC(=O)O)c4ccc(I)cc4C3(C)C)/CCC2)=[N+](CCCCCC(=O)O)c2ccc(I)cc21`, for which the Drug uptake entry in series [2], in series [9] and in series [10] was “Active” each time. In [3], the clearance worked out at 0.2 mL/min/kg. Moreover, the selectivity ratio at 24 h in [5] is 2.56. In the series with U-87 MG, this compound gave a half-maximal inhibitory concentration (IC50) of 11.4 µM. In addition, the half-life in [11] stood at 1.93 h. Further, in the series with Mus musculus, the Ratio was 6.5.

Take `CC1(C)C(/C=C/C2=C(Cl)C(=C/C=C3/N(CCCCCC(=O)O)c4ccccc4C3(C)C)/CCC2)=[N+](CCCCCC(=O)O)c2ccccc21`: in the series with U-87 MG, the 50% inhibitory concentration (IC50) was found to be 19.2 µM.

The values above are taken from ChEMBL document CHEMBL5036372, “QuatCy-I2 and MHI-I2 in Photodynamic Therapy” (ACS Med Chem Lett, 2022).
